{
  "source": "patent US20220000878A1",
  "about": "“METHODS OF TREATMENT OF MALIGNANCIES” (Servier Pharmaceuticals, LLC, priority 2015, published 2022)",
  "key": {"[1]": {"system": "advanced hematologic malignancies with an IDH1 mutation", "assay": "NRAS mutation status and COMPOUND 2 response (subset of clinical samples of the Phase 1 trial)", "format": "in vivo, human", "details": "cancer with mutant allele of IDH1", "source_text": "This study is a Phase 1, multicenter, open-label, dose-escalation, safety, PK/PD, and clinical activity evaluation of orally administered COMPOUND 2 in subjects with advanced hematologic malignancies that harbor an IDH1 mutation. The study includes a dose escalation phase to determine MTD and/or RP2D followed by expansion arms to further evaluate the safety, tolerability, and clinical activity of COMPOUND 2 in select populations.\nA analysis of a subset of the clinical samples from the trial for COMPOUND 2 was conducted. FIG. 14 provides a visual of NRAS mutations according to response categories for COMPOUND 2. FIG. 14 profiles bone marrow at screening visit for patients only where genes were mutated in ≥2. In FIG. 14, genes (y-axis) are shown in decreasing order of frequency, with the exception of IDH2, while patients (x-axis) are grouped by response then by similarity in alterations; only patients from dose escalation phase with an evaluable response included.\nA subset of the clinical samples from the trial for COMPOUND 2 described in Example 3 was analyzed for mutations in the samples. FIG. 14 provides a visual of commutations, including NRAS mutations according to response categories for COMPOUND 2. FIG. 14 profiles bone marrow at screening visit for patients only where genes were mutated in ≥2. […]"}, "2-HG": {"system": "2-HG", "assay": "Phase 1/2 study AG221-C-001: pharmacodynamic response (2-HG plasma levels)", "format": "in vivo, human", "source_text": "(§1) This is a Phase 1/2, multicenter, open-label, 3-part (Phase 1 dose escalation, Phase 1 Part 1 Expansion, and Phase 2), safety, PK/PD, and clinical activity evaluation of orally administered COMPOUND 1 in subjects with advanced hematologic malignancies that harbor an IDH2 mutation. The study includes a dose escalation phase to determine MTD/MAD and/or RP2D, an expansion phase (Part 1) to further evaluate the safety, tolerability, and clinical activity of COMPOUND 1, and a Phase 2 to assess the clinical efficacy of COMPOUND 1 at the RP2D and to further evaluate safety in subjects with refractory and relapsed AML carrying an IDH2 mutation.\nSubjects in the dose escalation phase and Part 1 Expansion also will undergo PK/PD assessments over a 10-hour period on C1D15, C2D1, and C4D1. […] These subjects will have urine collected for PK/PD evaluation at screening; prior to dosing on C1D15, C2D1 and Day 1 of all cycles thereafter; and at the End of Treatment visit. Available bone marrow biopsy samples also will be assessed for 2-HG and α-KG levels.\nThe starting dose of COMPOUND 1 recommended for evaluation is 100 mg QD. This is based on the safety, PK, pharmacodynamics and clinical activity of COMPOUND 1 observed to date in AG221-C-001. […] Thus a dose of 100 mg should adequately achieve inhibition of 2-HG in subjects with either R140Q or R172K mutation.\nSerial blood sampling for determination of concentration-time profiles of COMPOUND 1 and its metabolite (6-(6-(trifluoromethyl)pyridin-2-yl)-N2-(2-(trifluoromethyl)pyridin-4-yl)-1,3,5-triazine-2,4-diamine). Urine sampling for determination of concentrations of COMPOUND 1 and its metabolite (6-(6-(trifluoromethyl)pyridin-2-yl)-N2-(2-(trifluoromethyl)pyridin-4-yl)-1,3,5-triazine-2,4-diamine) (dose escalation and Part 1 expansion subjects only). Blood and bone marrow sampling for determination of 2-HG and α-KG levels."}, "[2]": {"system": "advanced hematologic malignancies with an IDH2 mutation", "assay": "Phase 1/2 study AG221-C-001: clinical activity and safety", "format": "in vivo, human", "source_text": "as §1\nSubjects in the dose escalation phase and Part 1 Expansion will have the extent of their disease assessed, including bone marrow biopsies and/or aspirates and peripheral blood, at screening, on C1D15, C2D1, and C3D1, every 28 days (peripheral blood only) or every 56 days (bone marrow biopsies and/or aspirates and peripheral blood) thereafter while on study drug treatment, independent of dose delays and/or dose interruptions, and/or at any time when progression of disease is suspected. Response to treatment and treatment decisions in all subjects will be determined by the Investigators based on modified International Working Group (IWG) response criteria or other appropriate response criteria for the malignancy under study. […]"}, "[3]": {"system": "advanced hematologic malignancies with an IDH2 mutation", "assay": "NRAS mutation status and COMPOUND 1 response (next generation sequencing of screening samples, Fisher's exact test)", "format": "in vivo, human", "protocol": "A subset of the clinical samples from the trial described in Example 1 were analyzed at screening. Sample types included bone marrow, peripheral blood and mononuclear cells isolated from bone marrow or peripheral blood. DNAs were extracted from these samples and sequenced at Foundation Medicine (see http://foundationone.com/learn.php) using next generation sequencing technique.\nA total of 60 genes were identified to carry at least one mutation in the analyzed set (including IDH2 gene). Fisher's exact test was conducted to evaluate the association of somatic mutations with clinical response (responders include CR, CRp, CRi and PR, indicated as +, while none-responders include SD and PD, indicated as—in Table 11). The P-values were adjusted by multiple-test correction.\nMutation status positive (+) means any known mutation(s) in NRAS, and negative (−) means no mutation in NRAS was present.\nPositive response status (+) includes CR, mCR and PR and negative response status (−) includes stable disease (SD) and progressive disease (PD)."}, "[4]": {"assay": "solubility in fasted state simulated intestinal fluid (FASSIF)", "format": "physicochemical", "details": "pH 6.1, fassif, thermodynamic from solid, pH of 6.1 at 4 hours", "protocol": "In comparison, amorphous spray-dried dispersions have a solubility of about 0.05 mg/mL to about 0.50 mg/mL in FASSIF at 3 hours."}},
  "note": "Entries after “also recorded” stand apart in the source; their conditions may differ.",
  "data": [
    {"compound": "N#Cc1ccnc(N2C(=O)CC[C@H]2C(=O)N(c2cncc(F)c2)[C@H](C(=O)NC2CC(F)(F)C2)c2ccccc2Cl)c1", "note": "[COMPOUND 2, (S)—N—((S)-1-(2-chlorophenyl)-2-((3,3-difluorocyclobutyl)amino)-2-oxoethyl)-1-(4-cyanopyridin-2-yl)-N-(5-fluoropyridin-3-yl)-5-oxopyrrolidine-2-carboxamide]", "values": [
      {"measurement": "association of NRAS mutation status with response", "setting": "[1]", "value": "associated with responses"}
    ]},
    {"compound": "CC(C)(O)CNc1nc(Nc2ccnc(C(F)(F)F)c2)nc(-c2cccc(C(F)(F)F)n2)n1", "note": "[COMPOUND 1, 2-methyl-1-[(4-[6-(trifluoromethyl)pyridin-2-yl]-6-{[2-(trifluoromethyl)pyridin-4-yl]amino}-1,3,5-triazin-2-yl)amino]propan-2-ol]", "values": [
      {"measurement": "reduction in 2-HG plasma levels", "setting": "2-HG; by Day 1 of Cycle 2", "value": "sustained reduction"},
      {"measurement": "inhibition of 2-HG", "setting": "2-HG; most subjects with R140Q mutation, all doses, plasma", "value": "up to 98%"},
      {"measurement": "dose dependence of exposure and inhibition of 2-HG", "setting": "2-HG; subjects with R172K mutation", "value": "Increasing dose is associated with higher exposure and inhibition of 2-HG"},
      {"measurement": "safety profile, including ≥Grade 3", "setting": "[2]; 100 mg", "value": "consistent with that of lower doses"},
      {"measurement": "overall response rate", "setting": "[2]; 44 subjects treated at 100 mg QD, preliminary efficacy data", "value": 36.4, "unit": "%"},
      {"measurement": "association of NRAS mutation status with response", "setting": "[3]; cancer with mutant allele of IDH2", "value": "associated with responses; also recorded: significantly associated"},
      {"measurement": "number of patients, response status − , NRAS mutation +", "setting": "[3]; non-responders (SD, PD), any known NRAS mutation", "value": 21},
      {"measurement": "number of patients, response status − , NRAS mutation −", "setting": "[3]; non-responders (SD, PD), no NRAS mutation", "value": 40},
      {"measurement": "number of patients, response status + , NRAS mutation +", "setting": "[3]; responders, any known NRAS mutation, N = 118 analyzed", "value": 2},
      {"measurement": "number of patients, response status + , NRAS mutation −", "setting": "[3]; responders, no NRAS mutation, N = 118 analyzed", "value": 55}
    ]},
    {"compound": "N#Cc1ccnc(N2C(=O)CC[C@H]2C(=O)N(c2cncc(F)c2)[C@H](C(=O)NC2CC(F)(F)C2)c2ccccc2Cl)c1", "note": "[Form 2]", "values": [
      {"measurement": "solubility at 4 h", "setting": "[4]", "value": "~18", "unit": "µg/mL"}
    ]}
  ]
}
